ChEMBL document CHEMBL3885861, “Open TG-GATES”

Species on record: Rattus norvegicus
Test: Open TG-GATES - Regimen: Single
Assay type: toxicity, organism-based, Sprague-Dawley
Set-up: regimen Single, gender Male, age 6 weeks
Conditions: in vivo, po, 0 mg/kg, route gavage, dose level Control; for APTT / Bas / Eos / Fbg / Hb / Ht / Lym / MCH / MCHC / MCV / Mono / Neu / PT / Plat / RBC / Ret / WBC: tissue Blood; for KIDNEY_L / KIDNEY_R / KIDNEY_TOTAL: tissue Kidney; for LIVER: tissue Liver; for ALP / ALT / AST / CRE / DBIL / GLC / IP / K / LDH / Na / PL / RALB / TBIL / TC / TP / gamma-GTP: tissue Plasma

In the case of `Clc1ccccc1CN1CCc2sccc2C1` [TICLOPIDINE], the TERMINAL_BW (3 h) is reported as 208.4 g, the APTT (3 h) is reported as 18.6 s and the Bas (3 h) is reported as 0%. It also gave an Eos (3 h) of 1%, a Fbg (3 h) of 221.2 mg/dL and a Hb (3 h) of 13.2 g/dL. The Ht (3 h) was 37.6%, the Lym (3 h) was 73.2% and the MCH (3 h) was 21.1 pg. It also gave an MCHC (3 h) of 35%, an MCV (3 h) of 60.3 fL and a Mono (3 h) of 3%. It also gave a Neu (3 h) of 21.8%, a PT (3 h) of 11.9 s and a Plat (3 h) of 123.5 x10_4/uL. It also gave an RBC (3 h) of 623.4 x10_4/ul, a Ret (3 h) of 7.9% and a WBC (3 h) of 82.6 x10_2/uL. For the same compound, the KIDNEY_L (3 h) was 0.9 g, the KIDNEY_R (3 h) was 0.9 g and the KIDNEY_TOTAL (3 h) was 1.9 g. It also gave an LIVER (3 h) of 9.5 g, an ALP (3 h) of 806 IU/L and an ALT (3 h) of 37.4 IU/L. It also gave an AST (3 h) of 69.2 IU/L, a CRE (3 h) of 0.4 mg/dL and a DBIL (3 h) of 0.07 mg/dL. The GLC (3 h) was 204.6 mg/dL, the IP (3 h) was 9.8 mg/dL and the K (3 h) was 3.9 meq/L. The LDH (3 h) was 129.2 IU/L, the Na (3 h) was 141.2 meq/L and the PL (3 h) was 142.4 mg/dL. For the same compound, the RALB (3 h) was 3.3 g/dL, the TBIL (3 h) was 0.1 mg/dL and the TC (3 h) was 79.2 mg/dL. For the same compound, the TP (3 h) was 5.4 g/dL, the gamma-GTP (3 h) was 1.2 IU/L and the TERMINAL_BW (6 h) was 208.2 g. The APTT (6 h) was 18.7 s, the Bas (6 h) was 0.2% and the Eos (6 h) was 1%. For the same compound, the Fbg (6 h) was 214.6 mg/dL, the Hb (6 h) was 13.4 g/dL and the Ht (6 h) was 38.1%. The Lym (6 h) was 73%, the MCH (6 h) was 21.3 pg and the MCHC (6 h) was 35.2%. The MCV (6 h) was 60.3 fL, the Mono (6 h) was 3% and the Neu (6 h) was 21.4%. For the same compound, the PT (6 h) was 12 s, the Plat (6 h) was 123.6 x10_4/uL and the RBC (6 h) was 632.8 x10_4/ul. For the same compound, the Ret (6 h) was 7.7%, the WBC (6 h) was 93.2 x10_2/uL and the KIDNEY_L (6 h) was 1 g. For the same compound, the KIDNEY_R (6 h) was 0.9 g, the KIDNEY_TOTAL (6 h) was 1.9 g and the LIVER (6 h) was 9.1 g. The ALP (6 h) was 821 IU/L, the ALT (6 h) was 32.4 IU/L and the AST (6 h) was 68 IU/L. The CRE (6 h) was 0.4 mg/dL, the DBIL (6 h) was 0.074 mg/dL and the GLC (6 h) was 183.2 mg/dL. The IP (6 h) was 9.3 mg/dL, the K (6 h) was 3.9 meq/L and the LDH (6 h) was 170.8 IU/L. The Na (6 h) was 141.4 meq/L, the PL (6 h) was 126.8 mg/dL and the RALB (6 h) was 3.2 g/dL. For the same compound, the TBIL (6 h) was 0.1 mg/dL, the TC (6 h) was 70.8 mg/dL and the TP (6 h) was 5.3 g/dL. The gamma-GTP (6 h) was 1 IU/L, the TERMINAL_BW (9 h) was 205.8 g and the APTT (9 h) was 17.9 s. The Bas (9 h) was 0%, the Eos (9 h) was 1% and the Fbg (9 h) was 222 mg/dL. The Hb (9 h) was 13.3 g/dL, the Ht (9 h) was 37.5% and the Lym (9 h) was 78.2%. The MCH (9 h) was 21.5 pg, the MCHC (9 h) was 35.6% and the MCV (9 h) was 60.5 fL. It also gave a Mono (9 h) of 2%, a Neu (9 h) of 17.8% and a PT (9 h) of 12.3 s. For the same compound, the Plat (9 h) was 131.6 x10_4/uL, the RBC (9 h) was 620 x10_4/ul and the Ret (9 h) was 7.6%. The WBC (9 h) was 87.2 x10_2/uL, the KIDNEY_L (9 h) was 0.9 g and the KIDNEY_R (9 h) was 0.9 g. The KIDNEY_TOTAL (9 h) was 1.8 g, the LIVER (9 h) was 7.9 g and the ALP (9 h) was 871.4 IU/L. For the same compound, the ALT (9 h) was 33.4 IU/L, the AST (9 h) was 65.6 IU/L and the CRE (9 h) was 0.4 mg/dL. For the same compound, the DBIL (9 h) was 0.072 mg/dL, the GLC (9 h) was 193.8 mg/dL and the IP (9 h) was 10 mg/dL. The K (9 h) was 3.7 meq/L, the LDH (9 h) was 128.4 IU/L and the Na (9 h) was 141.8 meq/L. It also gave a PL (9 h) of 130.8 mg/dL, an RALB (9 h) of 3.3 g/dL and a TBIL (9 h) of 0.1 mg/dL. It also gave a TC (9 h) of 74 mg/dL, a TP (9 h) of 5.4 g/dL and a gamma-GTP (9 h) of 1 IU/L. For the same compound, the TERMINAL_BW (24 h) was 221.4 g, the APTT (24 h) was 20.8 s and the Bas (24 h) was 0.8%. It also gave an Eos (24 h) of 0.8%, a Fbg (24 h) of 228.6 mg/dL and a Hb (24 h) of 13.7 g/dL. For the same compound, the Ht (24 h) was 38.7%, the Lym (24 h) was 75% and the MCH (24 h) was 21.5 pg. For the same compound, the MCHC (24 h) was 35.4%, the MCV (24 h) was 60.7 fL and the Mono (24 h) was 3.6%. The Neu (24 h) was 19.2%, the PT (24 h) was 11.9 s and the Plat (24 h) was 130.5 x10_4/uL. It also gave an RBC (24 h) of 638 x10_4/ul, a Ret (24 h) of 6.5% and a WBC (24 h) of 110.6 x10_2/uL. The KIDNEY_L (24 h) was 1 g, the KIDNEY_R (24 h) was 1 g and the KIDNEY_TOTAL (24 h) was 1.9 g. It also gave an LIVER (24 h) of 10.1 g, an ALP (24 h) of 880.2 IU/L and an ALT (24 h) of 43.8 IU/L. It also gave an AST (24 h) of 73.6 IU/L, a CRE (24 h) of 0.4 mg/dL and a DBIL (24 h) of 0.074 mg/dL. It also gave a GLC (24 h) of 198.2 mg/dL, an IP (24 h) of 8.5 mg/dL and a K (24 h) of 3.7 meq/L. It also gave an LDH (24 h) of 142.2 IU/L, a Na (24 h) of 141.8 meq/L and a PL (24 h) of 134.2 mg/dL. For the same compound, the RALB (24 h) was 3.4 g/dL, the TBIL (24 h) was 0.1 mg/dL and the TC (24 h) was 70 mg/dL. The TP (24 h) was 5.5 g/dL and the gamma-GTP (24 h) was 1 IU/L.
